How the values were obtained:
Assay type in all cases: functional
[1] = test system: HCC 2998; assay: Growth inhibition of human HCC 2998 cells assessed as cell growth at 0.01 uM incubated for 48 hrs by sulforhodamine B assay relative to control; conditions: read-out: Activity
[2] = test system: SF-539; assay: Growth inhibition of human SF-539 cells assessed as cell growth at 0.01 uM incubated for 48 hrs by sulforhodamine B assay relative to control; conditions: read-out: Activity
[3] = test system: LOX IMVI; assay: Growth inhibition of human LOX IMVI cells assessed as cell growth at 0.01 uM incubated for 48 hrs by sulforhodamine B assay relative to control; conditions: read-out: Activity
[4] = test system: SK-MEL-5; assay: Growth inhibition of human SK-MEL-5 cells assessed as cell growth at 0.01 uM incubated for 48 hrs by sulforhodamine B assay relative to control; conditions: read-out: Activity
[5] = test system: UACC-62; assay: Growth inhibition of human UACC-62 cells assessed as cell growth at 0.01 uM incubated for 48 hrs by sulforhodamine B assay relative to control; conditions: read-out: Activity
[6] = test system: IGROV-1; assay: Growth inhibition of human IGROV-1 cells assessed as cell growth at 0.01 uM incubated for 48 hrs by sulforhodamine B assay relative to control; conditions: read-out: Activity
[7] = test system: ACHN; assay: Growth inhibition of human ACHN cells assessed as cell growth at 0.01 uM incubated for 48 hrs by sulforhodamine B assay relative to control; conditions: read-out: Activity
[8] = test system: SN12C; assay: Growth inhibition of human SN12C cells assessed as cell growth at 0.01 uM incubated for 48 hrs by sulforhodamine B assay relative to control; conditions: read-out: Activity
[9] = test system: COLO 205; assay: Growth inhibition of human COLO 205 cells assessed as cell growth at 0.1 uM incubated for 48 hrs by sulforhodamine B assay relative to control; conditions: read-out: Activity
[10] = test system: LOX IMVI; assay: Growth inhibition of human LOX IMVI cells assessed as cell growth at 0.1 uM incubated for 48 hrs by sulforhodamine B assay relative to control; conditions: read-out: Activity
[11] = test system: 786-0; assay: Growth inhibition of human 786-0 cells assessed as cell growth at 0.1 uM incubated for 48 hrs by sulforhodamine B assay relative to control; conditions: read-out: Activity
[12] = test system: Hs-578T; assay: Growth inhibition of human Hs-578T cells assessed as cell growth at 0.1 uM incubated for 48 hrs by sulforhodamine B assay relative to control; conditions: read-out: Activity
[13] = test system: T47D; assay: Growth inhibition of human T47D cells assessed as cell growth at 0.1 uM incubated for 48 hrs by sulforhodamine B assay relative to control; conditions: read-out: Activity
[14] = test system: HL-60(TB); assay: Growth inhibition of human HL-60(TB) cells assessed as cell growth at 1 uM incubated for 48 hrs by sulforhodamine B assay relative to control; conditions: read-out: Activity
[15] = test system: NCI-H226; assay: Growth inhibition of human NCI-H226 cells assessed as cell growth at 1 uM incubated for 48 hrs by sulforhodamine B assay relative to control; conditions: read-out: Activity
[16] = test system: NCI-H322M; assay: Growth inhibition of human NCI-H322M cells assessed as cell growth at 1 uM incubated for 48 hrs by sulforhodamine B assay relative to control; conditions: read-out: Activity
[17] = test system: SK-OV-3; assay: Growth inhibition of human SK-OV-3 cells assessed as cell growth at 1 uM incubated for 48 hrs by sulforhodamine B assay relative to control; conditions: read-out: Activity
[18] = test system: BT-549; assay: Growth inhibition of human BT-549 cells assessed as cell growth at 1 uM incubated for 48 hrs by sulforhodamine B assay relative to control; conditions: read-out: Activity
[19] = test system: NCI-H460; assay: Growth inhibition of human NCI-H460 cells assessed as cell growth at 100 uM incubated for 48 hrs by sulforhodamine B assay relative to control; conditions: read-out: Activity
[20] = test system: NCI-H522; assay: Growth inhibition of human NCI-H522 cells assessed as cell growth at 100 uM incubated for 48 hrs by sulforhodamine B assay relative to control; conditions: read-out: Activity
[21] = test system: KM12; assay: Growth inhibition of human KM12 cells assessed as cell growth at 100 uM incubated for 48 hrs by sulforhodamine B assay relative to control; conditions: read-out: Activity
[22] = test system: OVCAR-8; assay: Growth inhibition of human OVCAR-8 cells assessed as cell growth at 100 uM incubated for 48 hrs by sulforhodamine B assay relative to control; conditions: read-out: Activity
[23] = test system: ACHN; assay: Growth inhibition of human ACHN cells assessed as cell growth at 100 uM incubated for 48 hrs by sulforhodamine B assay relative to control; conditions: read-out: Activity
[24] = test system: MDA-MB-468; assay: Growth inhibition of human MDA-MB-468 cells assessed as cell growth at 100 uM incubated for 48 hrs by sulforhodamine B assay relative to control; conditions: read-out: Activity
[25] = test system: CCRF-CEM; assay: Growth inhibition of human CCRF-CEM cells incubated for 48 hrs by sulforhodamine B assay
[26] = test system: EKVX; assay: Growth inhibition of human EKVX cells incubated for 48 hrs by sulforhodamine B assay
[27] = test system: HCC 2998; assay: Growth inhibition of human HCC 2998 cells incubated for 48 hrs by sulforhodamine B assay
[28] = test system: SF-295; assay: Growth inhibition of human SF-295 cells incubated for 48 hrs by sulforhodamine B assay
[29] = test system: SK-MEL-2; assay: Growth inhibition of human SK-MEL-2 cells incubated for 48 hrs by sulforhodamine B assay
[30] = test system: ACHN; assay: Growth inhibition of human ACHN cells incubated for 48 hrs by sulforhodamine B assay
[31] = test system: RXF 393; assay: Growth inhibition of human RXF 393 cells incubated for 48 hrs by sulforhodamine B assay
[32] = test system: BT-549; assay: Growth inhibition of human BT-549 cells incubated for 48 hrs by sulforhodamine B assay
[33] = test system: MDA-MB-468; assay: Growth inhibition of human MDA-MB-468 cells incubated for 48 hrs by sulforhodamine B assay
[34] = read-out: LC50 (the source's name)
[35] = read-out: pLC50 (the source's name) (converted)

## CC(=O)Nc1cc(CO[Si](C)(C)C(C)(C)C)cc(NC(=O)c2ccc(C(=O)Nc3cccc(NC(=O)CCCN(C)C)c3)cc2)c1
[1]
  growth at 0.01 µM: 98%
[2]
  growth at 0.01 µM: 95%
[3]
  growth at 0.01 µM: 101%
[4]
  growth at 0.01 µM: 98%
[5]
  growth at 0.01 µM: 96%
[6]
  growth at 0.01 µM: 99%
[7]
  growth at 0.01 µM: 100%
[8]
  growth at 0.01 µM: 96%
[9]
  growth at 0.1 µM: 100%
[10]
  growth at 0.1 µM: 94%
[11]
  growth at 0.1 µM: 93%
[12]
  growth at 0.1 µM: 121%
[13]
  growth at 0.1 µM: 97%
[14]
  growth at 1 µM: 86%
[15]
  growth at 1 µM: 92%
[16]
  growth at 1 µM: 97%
[17]
  growth at 1 µM: 107%
[18]
  growth at 1 µM: 99%
[19]
  growth at 100 µM: 89%
[20]
  growth at 100 µM: 86%
[21]
  growth at 100 µM: 88%
[22]
  growth at 100 µM: 88%
[23]
  growth at 100 µM: 84%
[24]
  growth at 100 µM: 103%
[25]; read-out: GI50
  GI50: > 75 µM
[25]; [34]
  CC50: > 75 µM
[25]; read-out: TGI
  TGI: > 75 µM
[25]; read-out: pGI50 (converted)
  GI50: > 75.9 µM
[25]; [35]
  CC50: > 75.9 µM
[25]; read-out: pTGI (converted)
  TGI: > 75.9 µM
[26]; read-out: GI50
  GI50: > 75 µM
[26]; read-out: LC50
  LC50: > 75 µM
[26]; read-out: TGI
  TGI: > 75 µM
[26]; read-out: pGI50 (converted)
  GI50: > 75.9 µM
[26]; read-out: pLC50 (converted)
  LC50: > 75.9 µM
[26]; read-out: pTGI
  TGI: > 75.9 µM
[27]; read-out: GI50
  GI50: > 75 µM
[27]; [34]
  CC50: > 75 µM
[27]; read-out: TGI
  TGI: > 75 µM
[27]; read-out: pGI50 (converted)
  GI50: > 75.9 µM
[27]; [35]
  CC50: > 75.9 µM
[27]; read-out: pTGI
  TGI: > 75.9 µM
[28]; read-out: GI50
  GI50: > 75 µM
[28]; read-out: LC50
  LC50: > 75 µM
[28]; read-out: TGI
  TGI: > 75 µM
[28]; read-out: pGI50 (converted)
  GI50: > 75.9 µM
[28]; read-out: pLC50 (converted)
  LC50: > 75.9 µM
[28]; read-out: pTGI
  TGI: > 75.9 µM
[29]; read-out: GI50
  GI50: > 75 µM
[29]; [34]
  CC50: > 75 µM
[29]; read-out: TGI
  TGI: > 75 µM
[29]; read-out: pGI50 (converted)
  GI50: > 75.9 µM
[29]; [35]
  CC50: > 75.9 µM
[29]; read-out: pTGI
  TGI: > 75.9 µM
[30]; read-out: GI50
  GI50: > 75 µM
[30]; [34]
  CC50: > 75 µM
[30]; read-out: TGI
  TGI: > 75 µM
[30]; read-out: pGI50 (converted)
  GI50: > 75.9 µM
[30]; [35]
  CC50: > 75.9 µM
[30]; read-out: pTGI
  TGI: > 75.9 µM
[31]; read-out: GI50
  GI50: > 75 µM
[31]; [34]
  CC50: > 75 µM
[31]; read-out: TGI
  TGI: > 75 µM
[31]; read-out: pGI50 (converted)
  GI50: > 75.9 µM
[31]; [35]
  CC50: > 75.9 µM
[31]; read-out: pTGI
  TGI: > 75.9 µM
[32]; read-out: GI50
  GI50: > 75 µM
[32]; [34]
  CC50: > 75 µM
[32]; read-out: TGI
  TGI: > 75 µM
[32]; read-out: pGI50 (converted)
  GI50: > 75.9 µM
[32]; [35]
  CC50: > 75.9 µM
[32]; read-out: pTGI
  TGI: > 75.9 µM
[33]; read-out: GI50
  GI50: > 75 µM
[33]; [34]
  CC50: > 75 µM
[33]; read-out: TGI
  TGI: > 75 µM
[33]; read-out: pGI50 (converted)
  GI50: > 75.9 µM
[33]; [35]
  CC50: > 75.9 µM
[33]; read-out: pTGI
  TGI: > 75.9 µM
